Test results from ChEMBL document CHEMBL3885881, “DrugMatrix”.

Species on record: Rattus norvegicus
Assay: DrugMatrix - Regimen: Daily Repeat
Format: toxicity, organism-based, Sprague-Dawley
Design: regimen Daily Repeat, gender Male, age 6-8 weeks
Details: in vivo, po, route oral GAVAGE, vehicle 100 % WATER; for ABSOLUTE BASOPHIL / ABSOLUTE EOSINOPHIL / ABSOLUTE LYMPHOCYTE / ABSOLUTE MONOCYTE / ABSOLUTE SEGMENTED NEUTROPHIL / BASOPHIL / EOSINOPHIL / ERYTHROCYTE COUNT / HEMATOCRIT / HEMOGLOBIN / LEUKOCYTE COUNT / LYMPHOCYTE / MEAN CORPUSCULAR HEMOGLOBIN / MEAN CORPUSCULAR HEMOGLOBIN CONCENTRATION / MEAN CORPUSCULAR VOLUME / MONOCYTE / NEUTROPHIL / NUCLEATED RED BLOOD CELLS / PLATELET COUNT: tissue Blood; for ALANINE AMINOTRANSFERASE / ALBUMIN / ALKALINE PHOSPHATASE / ASPARTATE AMINOTRANSFERASE / BLOOD UREA NITROGEN / CARBON DIOXIDE / CHLORIDE / CHOLESTEROL / CREATINE PHOSPHOKINASE / CREATININE / GLUCOSE / LACTATE DEHYDROGENASE / LIPASE / PHOSPHORUS / POTASSIUM / SODIUM / TOTAL BILIRUBIN / TOTAL PROTEIN / URIC ACID: tissue Plasma
[1] = 0 mg/kg, 72 h, dose level Control, time 3 day
[2] = 0 mg/kg, 120 h, dose level Control, time 5 day
[3] = 31 mg/kg, 72 h, dose level Low, time 3 day

SMILES: Nc1ccc(S(=O)(=O)Nc2nccs2)cc1 [SULFATHIAZOLE]
- ABSOLUTE BASOPHIL [1]: 0 CELLS/uL
- ABSOLUTE EOSINOPHIL [1]: 0 CELLS/uL
- ABSOLUTE LYMPHOCYTE [1]: 8482.5 CELLS/uL
- ABSOLUTE MONOCYTE [1]: 63.83 CELLS/uL
- ABSOLUTE SEGMENTED NEUTROPHIL [1]: 887 CELLS/uL
- BASOPHIL [1]: 0%
- EOSINOPHIL [1]: 0%
- ERYTHROCYTE COUNT [1]: 5.49 x10E6/uL
- HEMATOCRIT [1]: 34.5%
- HEMOGLOBIN [1]: 13.33 G/DL
- LEUKOCYTE COUNT [1]: 9.43 x10E3/uL
- LYMPHOCYTE [1]: 90.17%
- MEAN CORPUSCULAR HEMOGLOBIN [1]: 24.3 pg
- MEAN CORPUSCULAR HEMOGLOBIN CONCENTRATION [1]: 38.63 G/DL
- MEAN CORPUSCULAR VOLUME [1]: 62.88 fL
- MONOCYTE [1]: 0.67%
- NEUTROPHIL [1]: 9.17%
- NUCLEATED RED BLOOD CELLS [1]: 0.67 /100WBC
- PLATELET COUNT [1]: 1022.83 x10E3/uL
- ALANINE AMINOTRANSFERASE [1]: 50.5 u/L
- ALBUMIN [1]: 4.08 G/DL
- ALKALINE PHOSPHATASE [1]: 368.33 u/L
- ASPARTATE AMINOTRANSFERASE [1]: 87.5 u/L
- BLOOD UREA NITROGEN [1]: 12.83 mg/dL
- CARBON DIOXIDE [1]: 32.83 mmol/L
- CHLORIDE [1]: 99.67 MEQ/L
- CHOLESTEROL [1]: 79.67 mg/dL
- CREATINE PHOSPHOKINASE [1]: 585 u/L
- CREATININE [1]: 0.22 mg/dL
- GLUCOSE [1]: 135.67 mg/dL
- LACTATE DEHYDROGENASE [1]: 171 u/L
- LIPASE [1]: 9.5 u/L
- PHOSPHORUS [1]: 11.18 mg/dL
- POTASSIUM [1]: 6.25 MEQ/L
- SODIUM [1]: 144.87 MEQ/L
- TOTAL BILIRUBIN [1]: 0.2 mg/dL
- TOTAL PROTEIN [1]: 6.08 G/DL
- URIC ACID [1]: 0.65 mg/dL
- ABSOLUTE BASOPHIL [2]: 0 CELLS/uL
- ABSOLUTE EOSINOPHIL [2]: 14.5 CELLS/uL
- ABSOLUTE LYMPHOCYTE [2]: 7596.17 CELLS/uL
- ABSOLUTE MONOCYTE [2]: 69.67 CELLS/uL
- ABSOLUTE SEGMENTED NEUTROPHIL [2]: 503 CELLS/uL
- BASOPHIL [2]: 0%
- EOSINOPHIL [2]: 0.17%
- ERYTHROCYTE COUNT [2]: 5.49 x10E6/uL
- HEMATOCRIT [2]: 34.72%
- HEMOGLOBIN [2]: 13.47 G/DL
- LEUKOCYTE COUNT [2]: 8.18 x10E3/uL
- LYMPHOCYTE [2]: 92.17%
- MEAN CORPUSCULAR HEMOGLOBIN [2]: 24.57 pg
- MEAN CORPUSCULAR HEMOGLOBIN CONCENTRATION [2]: 38.82 G/DL
- MEAN CORPUSCULAR VOLUME [2]: 63.3 fL
- MONOCYTE [2]: 1%
- NEUTROPHIL [2]: 6.67%
- NUCLEATED RED BLOOD CELLS [2]: 0 /100WBC
- PLATELET COUNT [2]: 1141 x10E3/uL
- ALANINE AMINOTRANSFERASE [2]: 48.33 u/L
- ALBUMIN [2]: 4.07 G/DL
- ALKALINE PHOSPHATASE [2]: 395.67 u/L
- ASPARTATE AMINOTRANSFERASE [2]: 85.67 u/L
- BLOOD UREA NITROGEN [2]: 15.83 mg/dL
- CARBON DIOXIDE [2]: 31.33 mmol/L
- CHLORIDE [2]: 100.83 MEQ/L
- CHOLESTEROL [2]: 62.33 mg/dL
- CREATINE PHOSPHOKINASE [2]: 248.33 u/L
- CREATININE [2]: 0.2 mg/dL
- GLUCOSE [2]: 135.67 mg/dL
- LACTATE DEHYDROGENASE [2]: 141.33 u/L
- LIPASE [2]: 9.5 u/L
- PHOSPHORUS [2]: 10.73 mg/dL
- POTASSIUM [2]: 6.07 MEQ/L
- SODIUM [2]: 145.35 MEQ/L
- TOTAL BILIRUBIN [2]: 0.22 mg/dL
- TOTAL PROTEIN [2]: 6.12 G/DL
- URIC ACID [2]: 0.63 mg/dL
- ABSOLUTE BASOPHIL [3]: 0 CELLS/uL
- ABSOLUTE EOSINOPHIL [3]: 0 CELLS/uL
- ABSOLUTE LYMPHOCYTE [3]: 8271.67 CELLS/uL
- ABSOLUTE MONOCYTE [3]: 54.33 CELLS/uL
- ABSOLUTE SEGMENTED NEUTROPHIL [3]: 707.33 CELLS/uL
- BASOPHIL [3]: 0%
- EOSINOPHIL [3]: 0%
- ERYTHROCYTE COUNT [3]: 5.15 x10E6/uL
- HEMATOCRIT [3]: 32.73%
- HEMOGLOBIN [3]: 12.87 G/DL
- LEUKOCYTE COUNT [3]: 9.03 x10E3/uL
- LYMPHOCYTE [3]: 91.33%
- MEAN CORPUSCULAR HEMOGLOBIN [3]: 25.13 pg
- MEAN CORPUSCULAR HEMOGLOBIN CONCENTRATION [3]: 39.33 G/DL
- MEAN CORPUSCULAR VOLUME [3]: 63.97 fL
- MONOCYTE [3]: 0.67%
- NEUTROPHIL [3]: 8%
- NUCLEATED RED BLOOD CELLS [3]: 0 /100WBC
- PLATELET COUNT [3]: 928 x10E3/uL
- ALANINE AMINOTRANSFERASE [3]: 54.67 u/L
- ALBUMIN [3]: 4.13 G/DL
- ALKALINE PHOSPHATASE [3]: 375.67 u/L
- ASPARTATE AMINOTRANSFERASE [3]: 86.67 u/L
- BLOOD UREA NITROGEN [3]: 13.67 mg/dL
- CARBON DIOXIDE [3]: 32 mmol/L
- CHLORIDE [3]: 100.33 MEQ/L
- CHOLESTEROL [3]: 70.33 mg/dL
- CREATINE PHOSPHOKINASE [3]: 289 u/L
- CREATININE [3]: 0.36 mg/dL
- GLUCOSE [3]: 128.67 mg/dL
- LACTATE DEHYDROGENASE [3]: 147.33 u/L
- LIPASE [3]: 11.67 u/L
- PHOSPHORUS [3]: 11.83 mg/dL
- POTASSIUM [3]: 6.53 MEQ/L
- SODIUM [3]: 144.47 MEQ/L
- TOTAL BILIRUBIN [3]: 0.2 mg/dL
- TOTAL PROTEIN [3]: 6.07 G/DL
- URIC ACID [3]: 0.8 mg/dL
